Here are results for three molecules from article PMC2788680 (Journal of medicinal chemistry, 2009).

For assay [1], the target named is T1, DOR (Rattus norvegicus, UniProt P33533). In kind it is cell-based.
The target in assay [2] is T1, DOR. The experiment in a line: [35S]GTPγS binding assay, C6-DOR membranes. In kind it is biochemical. The conditions noted are these: [35S]GTPγS assay.
Assay [3] concerns the target T1, DOR. The experiment in a line: Antagonism of SNC80-stimulated [35S]GTPγS binding in C6-DOR. In kind it is biochemical.
The target of assay [4] is KOR (Homo sapiens, UniProt P41145). The experiment in a line: [35S]GTPγS binding assay, CHO-KOR membranes. It is filed as biochemical. The conditions noted are these: [35S]GTPγS assay.
Assay [5] deals with MOR (Rattus norvegicus, UniProt P33535). The experiment in a line: [35S]GTPγS binding assay, C6-MOR membranes. Conditions: [35S]GTPγS assay. It is filed as biochemical.

Molecules are shown by their SMILES. Entries after “also recorded” stand apart in the source; their conditions may differ. Like-named read-outs stand apart in the source and are kept apart here. Numbered stars: 1 amine (or outer) side, 2 acyl side, 3 side chain; on linkers, the order of the positions; unused ones are H or OH. Bridge positions count the residues as written; N and C are the ends. Square brackets hold non-standard residues; d marks the D form. Peptide text beside a SMILES is read from it. 2Nal = N[C@@H](Cc1ccc2ccccc2c1)C(=O)O; CH2 = C([*:1])[*:2]

T1 sequence (P33533 whole entry): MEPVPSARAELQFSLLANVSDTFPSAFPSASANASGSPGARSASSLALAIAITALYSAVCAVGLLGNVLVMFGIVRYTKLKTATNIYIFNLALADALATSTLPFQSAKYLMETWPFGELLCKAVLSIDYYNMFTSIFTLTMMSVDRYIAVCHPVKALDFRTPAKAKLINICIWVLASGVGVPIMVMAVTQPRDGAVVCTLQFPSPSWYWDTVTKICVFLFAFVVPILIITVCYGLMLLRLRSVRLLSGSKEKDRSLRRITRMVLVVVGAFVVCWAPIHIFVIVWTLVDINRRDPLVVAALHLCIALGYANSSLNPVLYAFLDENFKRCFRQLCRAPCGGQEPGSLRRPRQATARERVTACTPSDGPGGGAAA
KOR, sequence (P41145 whole entry): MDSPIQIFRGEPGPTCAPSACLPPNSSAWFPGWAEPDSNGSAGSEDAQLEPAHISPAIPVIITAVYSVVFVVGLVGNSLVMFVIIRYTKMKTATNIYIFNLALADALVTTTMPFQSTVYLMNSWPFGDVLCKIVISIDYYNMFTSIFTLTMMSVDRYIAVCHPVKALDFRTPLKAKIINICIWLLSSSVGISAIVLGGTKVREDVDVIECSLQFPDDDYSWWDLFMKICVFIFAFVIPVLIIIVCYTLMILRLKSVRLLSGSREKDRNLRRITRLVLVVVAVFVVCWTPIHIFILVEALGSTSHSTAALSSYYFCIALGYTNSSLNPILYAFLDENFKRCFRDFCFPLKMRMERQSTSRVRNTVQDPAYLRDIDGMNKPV
MOR, sequence (P33535 whole entry): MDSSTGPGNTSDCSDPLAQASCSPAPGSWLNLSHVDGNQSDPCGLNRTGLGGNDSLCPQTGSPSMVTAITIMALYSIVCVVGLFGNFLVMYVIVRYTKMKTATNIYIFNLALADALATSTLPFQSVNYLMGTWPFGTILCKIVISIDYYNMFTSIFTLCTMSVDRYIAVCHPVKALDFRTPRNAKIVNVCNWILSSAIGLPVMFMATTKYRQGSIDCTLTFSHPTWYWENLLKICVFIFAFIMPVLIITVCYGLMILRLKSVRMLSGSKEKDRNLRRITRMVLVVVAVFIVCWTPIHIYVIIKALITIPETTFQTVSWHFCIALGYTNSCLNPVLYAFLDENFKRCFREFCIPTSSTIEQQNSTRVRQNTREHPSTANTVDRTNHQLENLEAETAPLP

As to `C=CCN1C[C@H](C)N([C@H](c2ccc(C(=O)N(CC)CC)cc2)c2cccc(OC)c2)C[C@H]1C` [SNC80, 4-[(R)-[(2S,5R)-4-allyl-2,5-dimethylpiperazin-1-yl](3-methoxyphenyl)methyl]-N,N-diethylbenzamide], the “calculated maximal inhibition of adenylyl cyclase” value in assay [1] is recorded as 76 ± 8.8%.

With `NC(=O)[C@@H]1CSCSC[C@@H](NC(=O)[C@@H](N)Cc2ccc(O)cc2)C(=O)N[C@@H](Cc2ccccc2)C(=O)N[C@@H](Cc2ccc3ccccc3c2)C(=O)N1` [compound 9, Tyr-c(S-CH2-S)[D-Cys-Phe-2-Nal-Cys]NH2] (H-Y[dC]F[2Nal]C-NH2; linker 2-5 via CH2; N-terminus assumed), the “efficacy profile at DOR” value in assay [2] is recorded as “essentially as antagonists”. Also, the Kb in assay [3] was determined as 48 ± 9.5 nM. Moreover, the “efficacy profile at KOR” value in assay [4] is recorded as “full agonist”. Moreover, in assay [5], the “efficacy profile at MOR” value was “full agonist”. For the same molecule, in assay [1] (C6-DOR cells), the “activity in adenylyl cyclase inhibition assay” value is listed as “partial agonist”. For the same molecule, in assay [1] (calculated maximum, 5 µM forskolin-stimulated, C6-DOR cells), the “calculated maximal inhibition of adenylyl cyclase” value is recorded as 43 ± 9.0%.

Turning to `Oc1ccc2c3c1O[C@H]1c4[nH]c5ccccc5c4C[C@@]4(O)[C@@H](C2)N(CC2CC2)CC[C@]314` [naltrindole], the “activity in adenylyl cyclase inhibition assay” value in assay [1] is on record as “without effect; also recorded: did not inhibit cAMP accumulation”.
